Values quoted from earlier work as cited in PMC6843717 (ACS Omega, 2019).

Details: cited from earlier work; for bioavailability: FDA-approved small molecules for advanced breast cancer

Structure (SMILES)	bioavailability [%]	bioavailability (F) (reported for other anticancer drugs)
CO[C@H]1C[C@@H]2CC[C@@H](C)[C@@](O)(O2)C(=O)C(=O)N2CCCC[C@H]2C(=O)O[C@H]([C@H](C)C[C@@H]2CC[C@@H](OCCO)[C@H](OC)C2)CC(=O)[C@H](C)/C=C(\C)[C@@H](O)[C@@H](OC)C(=O)[C@H](C)C[C@H](C)/C=C/C=C/C=C/1C [everolimus]	~5	–
CS(=O)(=O)CCNCc1ccc(-c2ccc3ncnc(Nc4ccc(OCc5cccc(F)c5)c(Cl)c4)c3c2)o1 [lapatinib]	–	43–50%
CC(=O)O[C@H]1C(=O)[C@@]2(C)[C@H]([C@H](OC(=O)c3ccccc3)[C@]3(O)C[C@H](OC(=O)[C@H](O)[C@@H](NC(=O)c4ccccc4)c4ccccc4)C(C)=C1C3(C)C)[C@]1(OC(C)=O)CO[C@@H]1C[C@@H]2O [paclitaxel]	~11	–
